Results taken from patent US12201601B2, “Treatment for obesity” (Axsome Malta Ltd., priority 2013, dated 2025).

What was measured:
[1] = nonclinical studies in mice, rats, and dogs: body weight and food consumption; type: in vivo
[2] = 6-month repeated dose oral toxicity study with 3-month recovery in rats: body weight; type: in vivo; details: for Body weight gain (in words) / Body weight (in words): p<0.05-0.001; for Body weight after cessation of treatment (in words): recovery period; for Decreases in body weight gain at the end of the treatment period: conclusion over dose levels
Protocol: (§1) A 6-month repeated dose oral toxicity study with 3-month recovery was carried out in rats for R228060 (Formula Ib). Body weight and food consumption were monitored throughout the study.

[3] = 6-week randomized, double blind, active and placebo-controlled study in adult subjects with major depressive disorder: body weight; type: in vivo, Humans; details: for Mean weight loss / Subjects with weight Decrease ≥7% / Subjects with weight Increase <7% / Subjects with weight Increase ≥7% / Subjects with weight No change/decrease <7% / Weight, Change from Baseline, Mean / Weight, Change from Baseline, Median: baseline to endpoint; for Weight, End point, Mean / Weight, End point, Median: 6-week study
Protocol: A 6-week randomized, double blind, parallel group, active and placebo-controlled study was carried out to assess the efficacy of R228060 in adult subjects with major depressive disorder (MDD). Body weight was monitored throughout the study.

[4] = classic rat self-administration model
[5] = 6-month repeated dose oral toxicity study in rats: food consumption; type: in vivo
Protocol: as §1

[6] = 52-week repeated dose oral toxicity study in beagle dogs: food consumption; type: in vivo
Protocol: (§2) A 52-week repeated dose oral toxicity study with 13-week recovery was carried out in beagle dogs for R228060 (Formula Ib). Body weight and food consumption were monitored throughout the study (see Table 1).

[7] = 52-week repeated dose oral toxicity study with 13-week recovery in beagle dogs: body weight; type: in vivo; details: for Body weight variation during the treatment-free period only (value in brackets, Table 1): Day 455
Protocol: as §2

[8] = female rats, 600/450 mg HCl-salt/kg
[9] = male rats, 600/450 mg HCl-salt/kg

SMILES: NC(=O)OC[C@H](N)Cc1ccccc1 [Formula R228060, (R)-(beta-amino-benzenepropyl) carbamate]
- Body weight, body weight gain and food consumption (in words) [1]: decreases in body weight and/or body weight gain as well as reductions in food consumption
- Abuse potential: rewarding properties (in words) (place preference model): no significant rewarding properties
- Body weight and body weight gain (in words) ([2]; female rats, 35 mg HCl-salt/kg body weight/day oral for 6 consecutive months): did not adversely affect body weight and body weight gain
- Body weight gain decreased compared to the control group ([2]; female rats, 300 mg HCl-salt/kg body weight/day oral, week 13): 15%
- Body weight gain decreased compared to the control group ([2]; female rats, 300 mg HCl-salt/kg body weight/day oral, week 26): 23%
- Body weight gain (in words) ([2]; female rats, 300 mg HCl-salt/kg body weight/day, especially towards end of dosing period): moderate to pronounced decrease
- Body weight (in words) ([2]; female rats, 300 mg HCl-salt/kg body weight/day): moderately decreased body weight
- Remaining body weight difference at the end of the recovery period compared to control animals (in words) [2, 8]: only slightly lower
- Body weight gain decreased ([2]; female rats, 600/450 mg HCl-salt/kg body weight/day oral, week 13): 18%
- Body weight gain decreased ([2]; female rats, 600/450 mg HCl-salt/kg body weight/day oral, week 26): 21%
- Body weight gain (in words) ([2]; female rats, 600/450 mg HCl-salt/kg body weight/day, from first week of dosing): moderate to pronounced decrease in body weight gain
- Body weight (in words) ([2]; female rats, 600/450 mg HCl-salt/kg body weight/day): moderately decreased body weight
- Body weight after cessation of treatment (in words) [2, 8]: partial regain of their normal body weight
- Decreases in body weight gain at the end of the treatment period ([2]; female rats): ≤ 21%
- Body weight gain decreased ([2]; male rats, 35 mg HCl-salt/kg body weight/day oral, week 13, vs control): 6%
- Body weight gain decreased ([2]; male rats, 35 mg HCl-salt/kg body weight/day oral, week 26, vs control): 5%
- Body weight and weight gain (in words) ([2]; male rats, 35 mg HCl-salt/kg body weight/day, significant weeks 8-12 (gain) and 10-12 (weight), p<0.05): slightly lower compared to control rats
- Body weight gain decreased ([2]; male rats, 300 mg HCl-salt/kg body weight/day oral, week 13): 27%
- Body weight gain decreased ([2]; male rats, 300 mg HCl-salt/kg body weight/day oral, week 26): 24%
- Body weight and body weight gain (in words) ([2]; male rats, 300 mg HCl-salt/kg body weight/day, from first week of dosing, p<0.001): pronounced decrease in body weight and body weight gain
- Body weight at the end of the three month recovery period compared to control animals (in words) [2, 9]: still moderately lower
- Body weight gain decreased ([2]; male rats, 600/450 mg HCl-salt/kg body weight/day oral, week 13): 33%
- Body weight gain decreased ([2]; male rats, 600/450 mg HCl-salt/kg body weight/day oral, week 26): 32%
- Body weight and body weight gain (in words) ([2]; male rats, 600/450 mg HCl-salt/kg body weight/day, from week 1 onwards, p<0.001): pronounced decrease in body weight and body weight gain
- Body weight after cessation of treatment (in words) [2, 9]: partial regain of their normal (control) body weight
- Decreases in body weight gain at the end of the treatment period ([2]; male rats): up to 32%
- Body weights and body weight gains (conclusion in words) ([2]; rats, starting at 35 mg HCl-salt/kg body weight/day for males and 300 for females): dose-related decrease
- Weight relative to placebo treated patients (in words) ([3]; 6-week clinical study in major depressive disorder patients): dose-related decrease in weight relative to placebo treated patients
- Number of subjects with a decrease in weight of 7% or more ([3]; 200-mg group): 1 subjects
- Percentage of subjects with a decrease in weight of 7% or more ([3]; 200-mg group): 0.9%
- Mean weight loss ([3]; 200-mg group): 0.6 kg
- Number of subjects with a decrease in weight of 7% or more ([3]; 400-mg group): 3 subjects
- Percentage of subjects with a decrease in weight of 7% or more ([3]; 400-mg group): 2.5%
- Mean weight loss ([3]; 400-mg group): 0.9 kg
- Mean change from baseline to endpoint in BMI ([3]; R228060 200 mg): −0.2 kg/m^2
- Subjects with weight Decrease ≥7% ([3]; R228060 200 mg (N = 116)): 1 (0.9) n (%)
- Subjects with weight Increase <7% ([3]; R228060 200 mg (N = 116)): 39 (33.6) n (%)
- Subjects with weight Increase ≥7% ([3]; R228060 200 mg (N = 116)): 1 (0.9) n (%)
- Subjects with weight No change/decrease <7% ([3]; R228060 200 mg (N = 116)): 75 (64.7) n (%)
- Weight, End point, Mean ([3]; R228060 200 mg group): 85.4 kg
- Weight, End point, Median ([3]; R228060 200 mg group): 83.4 kg
- Weight, Change from Baseline, Mean ([3]; R228060 200 mg group): -0.6 kg
- Weight, Change from Baseline, Median ([3]; R228060 200 mg group): -0.5 kg
- Mean change from baseline to endpoint in BMI ([3]; R228060 400 mg): −0.3 kg/m^2
- Subjects with weight Decrease ≥7% ([3]; R228060 400 mg (N = 120)): 3 (2.5) n (%)
- Subjects with weight Increase <7% ([3]; R228060 400 mg (N = 120)): 27 (22.5) n (%)
- Subjects with weight Increase ≥7% ([3]; R228060 400 mg (N = 120)): 0 n (%)
- Subjects with weight No change/decrease <7% ([3]; R228060 400 mg (N = 120)): 90 (75.0) n (%)
- Weight, End point, Mean ([3]; R228060 400 mg group): 83.2 kg
- Weight, End point, Median ([3]; R228060 400 mg group): 78.9 kg
- Weight, Change from Baseline, Mean ([3]; R228060 400 mg group): -0.9 kg
- Weight, Change from Baseline, Median ([3]; R228060 400 mg group): -0.9 kg
- Reporting of anorexia (in words) ([3]; compound-treated groups, 6-week clinical study): increase in reporting of anorexia
- Abuse potential: reinforcing properties (in words) [4]: not reinforcing
- Statistically significant increases in food consumption (assessment in words) ([5]; female rats, 35, 300 and 600/450 mg HCl-salt/kg body weight level): toxicologically irrelevant
- Food consumption (significance, in words) ([5]; rats, 300 and 600/450 mg HCl-salt/kg body weight level): statistically significant decreases
- Food consumption (in words) ([5]; rats, both sexes, first weeks of dosing, starting at 35 mg HCl-salt/kg body weight/day for males and 300 for females): dose-related decrease in food consumption
- Food consumption (in words) ([6]; all female dogs, 50 mg/kg bw/day, first week of treatment): lower food consumption, which was marked for 3/6 animals
- Food consumption during the treatment-free period (in words) ([6]; dogs, any animal): No effect on food consumption
- Lower food consumption ([6]; female dogs, 25 mg/kg bw/day, first week of treatment): −25 to −50 % of the daily portion
- Reduced food consumption ([6]; male dogs, 50 mg/kg bw/day, mainly first week of treatment): about −50 % of the daily portion
- Reduced food consumption compared to control ([6]; one male dog, 25 mg/kg bw/day, first week of treatment): about −40%
- Slightly lower food consumption ([6]; three out of four female dogs, 10 mg/kg bw/day, first week of treatment): about −25 % of the daily portion
- Body weight change (Table 1) ([7]; dogs, 10 mg/kg bw/day, females, Day 4): −6%
- Body weight change (Table 1) ([7]; dogs, 10 mg/kg bw/day, females, Day 21): −2%
- Body weight change (Table 1) ([7]; dogs, 10 mg/kg bw/day, females, Day 182): +26%
- Body weight change (Table 1) ([7]; dogs, 10 mg/kg bw/day, females, Day 364): +25%
- Body weight change (Table 1) ([7]; dogs, 10 mg/kg bw/day, males, Day 4): −1%
- Body weight change (Table 1) ([7]; dogs, 10 mg/kg bw/day, males, Day 21): 0%
- Body weight change (Table 1) ([7]; dogs, 10 mg/kg bw/day, males, Day 182): +22%
- Body weight change (Table 1) ([7]; dogs, 10 mg/kg bw/day, males, Day 364): +32%
- Body weight change (Table 1) ([7]; dogs, 25 mg/kg bw/day, females, Day 4): −7%
- Body weight change (Table 1) ([7]; dogs, 25 mg/kg bw/day, females, Day 21): −4%
- Body weight change (Table 1) ([7]; dogs, 25 mg/kg bw/day, females, Day 182): +16%
- Body weight change (Table 1) ([7]; dogs, 25 mg/kg bw/day, females, Day 364): +26%
- Body weight change (Table 1) ([7]; dogs, 25 mg/kg bw/day, males, Day 4): −4%
- Body weight change (Table 1) ([7]; dogs, 25 mg/kg bw/day, males, Day 21): −4%
- Body weight change (Table 1) ([7]; dogs, 25 mg/kg bw/day, males, Day 182): +71%
- Body weight change (Table 1) ([7]; dogs, 25 mg/kg bw/day, males, Day 364): +19%
- Body weight change (Table 1) ([7]; dogs, 50 mg/kg bw/day, females, Day 4): −9%
- Body weight change (Table 1) ([7]; dogs, 50 mg/kg bw/day, females, Day 21): −12%
- Body weight change (Table 1) ([7]; dogs, 50 mg/kg bw/day, females, Day 182): +11%
- Body weight change (Table 1) ([7]; dogs, 50 mg/kg bw/day, females, Day 364): +9%
- Body weight variation during the treatment-free period only (value in brackets, Table 1) ([7]; dogs, 50 mg/kg bw/day, females): +26% (+26%)
- Body weight change (Table 1) ([7]; dogs, 50 mg/kg bw/day, females, Day 455 (end of treatment-free period)): +26% (+26%)
- Body weight change (Table 1) ([7]; dogs, 50 mg/kg bw/day, males, Day 4): −9%
- Body weight change (Table 1) ([7]; dogs, 50 mg/kg bw/day, males, Day 21): −12%
- Body weight change (Table 1) ([7]; dogs, 50 mg/kg bw/day, males, Day 182): +7%
- Body weight change (Table 1) ([7]; dogs, 50 mg/kg bw/day, males, Day 364): +9%
- Body weight variation during the treatment-free period only (value in brackets, Table 1) ([7]; dogs, 50 mg/kg bw/day, males): +6%
- Body weight change (Table 1) ([7]; dogs, 50 mg/kg bw/day, males, Day 455 (end of treatment-free period)): +12%
- Mean body weight gain compared to control (in words) ([7]; dogs, treated groups, days 182 and 364): lower does-relative mean body weight gain
- Day on which weight returned to the initial weight ([7]; female dogs, 10 mg/kg bw/day): 28 days
- Mean body weight loss ([7]; female dogs, 10 mg/kg bw/day, first 4 days of treatment): 0.4 kg
- Day on which weight returned to the initial weight ([7]; female dogs, 25 mg/kg bw/day): 42 days
- Mean body weight loss ([7]; female dogs, 25 mg/kg bw/day, first 4 days of treatment): 0.5 kg
- Mean body weight loss ([7]; female dogs, 50 mg/kg bw/day, first 4 days of treatment): 0.7 kg
- Body weight gain during the treatment-free period compared to controls (in words) ([7]; group 4 females): higher body weight gain
- Body weight gain during the treatment-free period compared to controls (in words) ([7]; group 4 males): only slightly higher
- Day on which weight returned to the initial weight ([7]; high dose female group (50 mg/kg bw/day)): 77 days
- Mean body weight loss ([7]; high dose female group (50 mg/kg bw/day), day 21): 0.8 kg
- Day on which weights returned to the initial values ([7]; high dose male group (50 mg/kg bw/day)): 126 days
- Mean body weight loss ([7]; high dose male group (50 mg/kg bw/day), day 21): 0.8 kg
- Day on which weights returned to initial weights ([7]; male dogs, 25 mg/kg bw/day): 35 days
- Mean body weight loss ([7]; male dogs, 25 mg/kg bw/day, first 4 days of treatment): 0.3 kg
- Mean body weight loss ([7]; male dogs, 50 mg/kg bw/day, first 4 days of treatment): 0.7 kg
